Laboratory results from US20230022779A1, “DETECTION OF VIABLE MICROORGANISMS IN URINE” (Children's National Medical Center, priority 2021, published 2023).
Where “and” joins values, the source holds several entries; their conditions need not be identical. Equal values may be shown once.

Experiments:
[1] = system: E. coli (UTI89); test: Mouse UTI model, ciprofloxacin treatment, urine culture and PMA-PCR; details: 10 mg/kg i.p. twice a day for 3 days from day 5 post-inoculation; urine one day after completion
[2] = system: Klebsiella pneumoniae (ATCC 13883), phoE gene; test: PMA-qPCR of bacteria grown with ciprofloxacin; format: cell-based; details: 1000 μg/mL ciprofloxacin, 3 and 24-hour treatments
Text: The samples underwent PMA treatment, followed by DNA extraction, as described in Example 2. A primer set specific for K. pneumoniae that targets the gene phoE, derived from Shannon et al (doi:10.1016/j.scitotenv. 2007.02.039) was used in conjunction with the samples in a qPCR reaction.

O=C(O)c1cn(C2CC2)c2cc(N3CCNCC3)c(F)cc2c1=O [ciprofloxacin, Ciprofloxacin]
groups of mice with no growth on non-selective LB agar [1]: 3 of 5 and 3 out of the 5
CT value of PMA-treated sample compared to non-PMA-treated equivalent [2]: greater CT
